In patent US20180327367A1, “MACROCYCLIC BROAD SPECTRUM ANTIBIOTICS” (priority 2015, published 2018):
Values after ≈ are worked out from the molar mass of the structure shown. Where two headings read alike, the source gives them in different places.

How the values were obtained:
[1] = target: T1, SpsB (Staphylococcus aureus signal peptidase) (Staphylococcus aureus, UniProt P0A070); test: cell-based; type: biochemical; conditions: SpsB IC50, whole-cell S. aureus (USA300 background, overexpressing SpsB) as SpsB source; fluorogenic peptide substrate, kinetic read 30 min
T1 construct: This assay uses a suspension of Staphylococcus aureus cells as a source of SpsB instead of recombinant SpsB protein; endogenous in cells; host or cells: S. aureus, USA300 background, overexpressing SpsB (whole-cell suspension from frozen pellets)
T1 sequence (P0A070 whole entry): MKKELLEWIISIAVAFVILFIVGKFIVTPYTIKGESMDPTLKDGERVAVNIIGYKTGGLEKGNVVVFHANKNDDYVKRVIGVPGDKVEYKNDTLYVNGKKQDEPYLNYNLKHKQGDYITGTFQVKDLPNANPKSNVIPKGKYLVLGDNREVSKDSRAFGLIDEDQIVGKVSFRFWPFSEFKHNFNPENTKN
Method in brief: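 Cleavage of an internally quenched (Dabcyl)βAla-KPAKAAE(Edans) peptide, added as 20 μM solution mixed 1:1 with cells, was followed for 30 min at 340/490 nm. SpsB came from a suspension of SpsB-overexpressing USA300 S. aureus in Tween-80-containing PBS buffer. Slopes plotted against 3-fold compound dilutions gave IC50.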

[2] = test system: Escherichia coli MC4100 harboring the IMP4213 (E. coli IMP); test: microbe, parasite or virus in culture; type: cell-based; conditions: Escherichia coli, 22 h, read-out: MIC (μg/mL) E. coli IMP, E. coli MC4100 IMP4213, increased outer-membrane permeability; 35° C., 22 hours
Method in brief: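 Top conc 4 μg/mL (protocol 2) or 0.5 μg/mL (protocol 3), 2-fold series, 10 points. Final OD600 0.0005; 22 h, 35° C. IMP4213 = permeable outer membrane.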

[3] = test system: Methicillin Resistant Staphylococcus aureus strain USA 300, NRS384; test: Minimum inhibitory concentration, broth micro-dilution (CLSI), S. aureus; type: cell-based; conditions: Staphylococcus aureus, MRSA / NRS 384 / USA300, 22 h, 35° C., 22 hours
Method in brief: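 CLSI broth microdilution in cation-adjusted Mueller Hinton Broth with 0.002% Tween-80; inoculum final OD600 0.0005, 22 hours at 35° C. Ten 2-fold dilutions starting at 4 μg/mL (protocol 2) or 0.5 μg/mL (protocol 3).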

[4] = test system: Escherichia coli ATCC 25922; test: Minimum inhibitory concentration, broth micro-dilution (CLSI), E. coli; type: cell-based; conditions: Escherichia coli, ATCC25922, 22 h, 35° C., 22 hours
[5] = read-out: MIC (μg/mL) S. aureus, MRSA USA 300 NRS384
[6] = read-out: MIC (μg/mL) E. coli, E. coli ATCC 25922
[7] = MRSA USA 300 NRS384, read-out: MIC (μg/mL) S. aureus
[8] = E. coli ATCC 25922, read-out: MIC (μg/mL) E. coli

Q: What does the source list for `C[C@@H]1NC(=O)[C@@H](N(C)C(=O)[C@H](CCN)NC(=O)c2ccc(C(C)(C)C)cc2C(F)F)c2ccc(OCCN)c(c2)-c2cc(ccc2OCCN)C[C@@H](C(=O)NCC#N)NC1=O` [Compound 220]?
A: IC50 [1]: 1.5 nM; MIC [2]: 0.047 µg/mL (≈ 0.0554 µM); MIC [3, 5]: 0.25 µg/mL (≈ 0.295 µM); MIC [4, 6]: 2.5 µg/mL (≈ 2.95 µM)

Q: How did the IC50 [1] turn out when `CCCCCCCCCC(=O)N[C@H](C)C(=O)NCC(=O)N[C@@H](CCN)C(=O)N(C)[C@@H]1C(=O)N[C@@H](C)C(=O)N[C@H](C(=O)NCC#N)Cc2ccc(OCCN)c(c2)-c2cc1ccc2OCCN` [Compound 366] was run?
A: 0.64 nM

Q: And the MIC [2]?
A: 0.38 µg/mL (≈ 0.413 µM)

Q: And the MIC [3, 5]?
A: 0.25 µg/mL (≈ 0.272 µM)

Q: What about the MIC [4, 6] of the same compound?
A: 48 µg/mL (≈ 52.2 µM)

Q: How did the IC50 [1] turn out when `CCCCCCCCc1ccc(C(=O)N[C@@H](CCO)C(=O)N(C)[C@@H]2C(=O)N[C@@H](C)C(=O)N[C@H](C(=O)NCC#N)Cc3ccc(OCCN)c(c3)-c3cc2ccc3OCCN)c(C)c1` [Compound 262] was run?
A: 0.9 nM

Q: What about the MIC [2] of the same compound?
A: 0.02 µg/mL (≈ 0.023 µM)

Q: What about the MIC [3, 7] of the same compound?
A: 0.063 µg/mL (≈ 0.0725 µM)

Q: And the MIC [4, 8]?
A: 1 µg/mL (≈ 1.15 µM)

Q: Which results are given for `CCCCCCCCCCCC(=O)N[C@H](C(=O)N(C)[C@@H]1C(=O)N[C@@H](C)C(=O)N[C@H](C(=O)NCC#N)Cc2ccc(OCCN)c(c2)-c2cc1ccc2OCCN)[C@@H](C)O` [Compound 256]?
A: IC50 [1]: 0.8 nM; MIC [2]: 0.094 µg/mL (≈ 0.114 µM); MIC [3, 7]: 0.19 µg/mL (≈ 0.231 µM); MIC [4, 8]: 16 µg/mL (≈ 19.5 µM)

Q: `CCCCc1ccc(C(=O)N[C@@H](CCC(N)=O)C(=O)N(C)[C@@H]2C(=O)N[C@@H](C)C(=O)N[C@H](C(=O)NCC#N)Cc3ccc(OCCN)c(c3)-c3cc2ccc3OCCN)c(C)c1` [Compound 245] was tested. Which IC50 [1] did it give?
A: 6.3 nM

Q: And the MIC [2]?
A: 0.38 µg/mL (≈ 0.452 µM)

Q: What about the MIC [3, 7] of the same compound?
A: 1 µg/mL (≈ 1.19 µM)

Q: What about the MIC [4, 8] of the same compound?
A: > 64 µg/mL

Q: How did the IC50 [1] turn out when `CCCCCCOCc1ccc(C(=O)N[C@@H](CCN)C(=O)N(C)[C@@H]2C(=O)N[C@@H](C)C(=O)N[C@H](C(=O)NCC#N)Cc3ccc(OCCN)c(c3)-c3cc2ccc3OCCN)c(C)c1` [Compound 298] was run?
A: 0.82 nM

Q: And the MIC [2]?
A: 0.0078 µg/mL (≈ 0.00896 µM)

Q: What about the MIC [3, 7] of the same compound?
A: 0.063 µg/mL (≈ 0.0724 µM)

Q: And the MIC [4, 8]?
A: 1 µg/mL (≈ 1.15 µM)

Q: What does the source list for `CCCCCCCCCCC(C)(C)C(=O)N[C@@H](CCN)C(=O)N(C)[C@@H]1C(=O)N[C@@H](C)C(=O)N[C@H](C(=O)NCC#N)Cc2ccc(OCCN)c(c2)-c2cc1ccc2OCCN` [Compound 406]?
A: IC50 [1]: 1.2 nM; MIC [2]: 0.031 µg/mL (≈ 0.0366 µM); MIC [3, 7]: 0.063 µg/mL (≈ 0.0743 µM); MIC [4, 8]: 2 µg/mL (≈ 2.36 µM)

Q: What does the source list for `CCCCCCCCCCCCCC(=O)N[C@@H](CCN)C(=O)N(C)[C@@H]1C(=O)N[C@@H](C)C(=O)N[C@H](C(=O)NCC#N)Cc2ccc(OCCO)c(c2)-c2cc1ccc2OCCN` [Compound 325]?
A: IC50 [1]: 0.77 nM; MIC [2]: < 0.0039 µg/mL; MIC [3, 7]: 0.13 µg/mL (≈ 0.153 µM); MIC [4, 8]: 0.5 µg/mL (≈ 0.589 µM)

Q: Which results are given for `CCCCCCCCCCNCCC(=O)N[C@@H](CCN)C(=O)N(C)[C@@H]1C(=O)N[C@@H](C)C(=O)N[C@H](C(=O)NCC#N)Cc2ccc(OCCN)c(c2)-c2cc1ccc2OCCN` [Compound 129]?
A: IC50 [1]: 0.67 nM; MIC [2]: 0.094 µg/mL (≈ 0.111 µM); MIC [3, 7]: 0.023 µg/mL (≈ 0.0271 µM); MIC [4, 8]: 4 µg/mL (≈ 4.71 µM)

Q: What does the source list for `C[C@@H]1NC(=O)[C@@H](N(C)C(=O)[C@H](CCCCN)NC(=O)c2ccc(-c3ccc(-c4ccccc4)cc3)cc2)c2ccc(OCCN)c(c2)-c2cc(ccc2OCCN)C[C@@H](C(=O)NCC#N)NC1=O` [Compound 118]?
A: IC50 [1]: 1.4 nM; MIC [2]: 0.031 µg/mL (≈ 0.0336 µM); MIC [3, 5]: 0.063 µg/mL (≈ 0.0683 µM); MIC [4, 6]: 0.75 µg/mL (≈ 0.813 µM)

Q: With `C[C@@H]1NC(=O)[C@@H](N(C)C(=O)[C@H](CCN)NC(=O)c2ccc(-c3ccc4c(c3)CCCC4)cc2)c2ccc(OCCN)c(c2)-c2cc(ccc2OCCN)C[C@@H](C(=O)NCC#N)NC1=O` [Compound 138] as the compound, how does the IC50 [1] read?
A: 0.93 nM

Q: And the MIC [2]?
A: 0.055 µg/mL (≈ 0.0631 µM)

Q: What about the MIC [3, 5] of the same compound?
A: 0.063 µg/mL (≈ 0.0722 µM)

Q: And the MIC [4, 6]?
A: 0.25 µg/mL (≈ 0.287 µM)

Q: How did the IC50 [1] turn out when `CCc1ccc(-c2ncc(C(=O)N[C@@H](CCN)C(=O)N(C)[C@@H]3C(=O)N[C@@H](C)C(=O)N[C@H](C(=O)NCC#N)Cc4ccc(OCCN)c(c4)-c4cc3ccc4OCCN)c(C)n2)cc1` [Compound 155] was run?
A: 2.5 nM

Q: And the MIC [2]?
A: 0.0098 µg/mL (≈ 0.0114 µM)

Q: And the MIC [3, 7]?
A: 0.13 µg/mL (≈ 0.151 µM)

Q: What about the MIC [4, 8] of the same compound?
A: 0.44 µg/mL (≈ 0.51 µM)

Q: For `C[C@@H]1NC(=O)[C@@H](N(C)C(=O)[C@H](CCN)NC(=O)c2ccc(C#Cc3ccccc3)cc2)c2ccc(OCCN)c(c2)-c2cc(ccc2OCCN)C[C@@H](C(=O)NCC#N)NC1=O` [Compound 120], which IC50 [1] is on record?
A: 1 nM

Q: And the MIC [2]?
A: 0.016 µg/mL (≈ 0.019 µM)

Q: What about the MIC [3, 5] of the same compound?
A: 0.094 µg/mL (≈ 0.112 µM)

Q: And the MIC [4, 6]?
A: 0.44 µg/mL (≈ 0.523 µM)
